What was measured:
Human AMPK α2β2γ1 = target: T1, Human AMPK α2β2γ1 (Homo sapiens, UniProt O43741+P54646); test: Evaluation of AMPK activator, Test Example 2 (CaMKK2-phosphorylated enzyme, mobility-shift kinase assay); type: biochemical; settings: for EC150 (compound concentration showing 150% relative to the control (100%)): human AMPK α2β2γ1 phosphorylated by CaMKK2, 25° C., 2 hours; for Emax: human AMPK α2β2γ1 phosphorylated by CaMKK2, relative to control (100%), read-out: Emax (maximum rate of increase in activity within the measurement range)
T1 construct: The full length cDNAs of human AMPK β2 (NM_005399.3) and human AMPK α2 (NM_006252.3) were inserted; the full length cDNA of human AMPK γ1 (NM_002733.3) had been inserted into pET28b(+); 6xHis (N); made in house; host or cells: Escherichia coli BL21 CodonPlus (DE3)-RIL (AMPK); BL21 Star (DE3) (CaMKKβ)
T1 sequence (P54646 whole entry): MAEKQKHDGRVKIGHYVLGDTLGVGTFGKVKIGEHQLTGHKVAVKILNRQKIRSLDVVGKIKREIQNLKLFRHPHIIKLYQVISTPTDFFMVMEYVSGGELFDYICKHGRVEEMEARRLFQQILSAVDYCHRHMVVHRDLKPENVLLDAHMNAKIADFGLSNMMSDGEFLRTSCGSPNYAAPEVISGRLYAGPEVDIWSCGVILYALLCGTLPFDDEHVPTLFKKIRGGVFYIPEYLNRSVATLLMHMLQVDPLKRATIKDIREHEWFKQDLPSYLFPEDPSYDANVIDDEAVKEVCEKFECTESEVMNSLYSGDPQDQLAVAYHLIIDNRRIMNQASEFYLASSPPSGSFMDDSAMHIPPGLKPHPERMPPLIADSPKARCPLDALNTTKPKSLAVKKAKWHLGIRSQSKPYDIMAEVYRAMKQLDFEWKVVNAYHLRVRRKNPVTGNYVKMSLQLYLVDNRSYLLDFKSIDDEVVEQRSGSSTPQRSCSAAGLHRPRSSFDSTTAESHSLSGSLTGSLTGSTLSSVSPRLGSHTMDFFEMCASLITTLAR
T1 sequence (O43741 whole entry): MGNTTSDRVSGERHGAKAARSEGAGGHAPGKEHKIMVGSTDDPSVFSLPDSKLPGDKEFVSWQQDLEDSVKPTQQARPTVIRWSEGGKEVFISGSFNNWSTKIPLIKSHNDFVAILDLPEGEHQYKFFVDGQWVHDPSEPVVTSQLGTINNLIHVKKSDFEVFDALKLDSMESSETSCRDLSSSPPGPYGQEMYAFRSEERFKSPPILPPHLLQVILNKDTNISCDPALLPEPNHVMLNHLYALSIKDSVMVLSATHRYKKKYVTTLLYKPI
T1 sequence (P54619 whole entry partner): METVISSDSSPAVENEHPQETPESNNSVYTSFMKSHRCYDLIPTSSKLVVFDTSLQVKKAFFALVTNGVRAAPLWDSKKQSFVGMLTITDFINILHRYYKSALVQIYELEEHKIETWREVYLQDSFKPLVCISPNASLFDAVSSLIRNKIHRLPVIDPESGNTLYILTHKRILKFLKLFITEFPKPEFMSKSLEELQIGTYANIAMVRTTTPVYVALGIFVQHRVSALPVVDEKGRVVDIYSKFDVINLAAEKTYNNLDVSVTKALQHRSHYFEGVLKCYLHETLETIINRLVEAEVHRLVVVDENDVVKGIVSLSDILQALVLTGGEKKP
Procedure: The full length cDNAs of human AMPK β2 (NM_005399.3) and human AMPK α2 (NM_006252.3) were inserted into the MCS1 and MCS2 of the pETDuet-1 vector to prepare a human AMPK β2 and human AMPK α2 (6× His tag at the 5′ terminus) expressing plasmid. The plasmid was contransfected with an expression plasmid, in which the full length cDNA of human AMPK γ1 (NM_002733.3) had been inserted into pET28b(+), into BL21 CodonPlus (DE3)-RIL to obtain an expression strain. The expression strain was cultured in TB medium, followed by induction with 0.5 mM IPTG, and cultured at 25° C. for 3 hours and then harvested. After ultrasonication, supernatant was collected and applied to Histrap FF column (GE) and RESOUECE Q column (GE) to prepare 12.5 mg of purified sample containing three types of subunit from 1.8 L of broth.
An expression vector, in which the full length cDNA of human CAMKK β (NM_172226.1) had been inserted into pGEX-6P-3, was transfected into BL21 Star (DE3). The expression strain was cultured in TB medium, followed by induction with 0.5 mM IPTG, and cultured at 25° C. for 3 hours and then harvested. After ultrasonication, supernatant was collected and applied to GSTrap FF column (GE) to prepare 14 mg of GST-fused CAMKK β from 720 ml of broth.
Evaluation Method of an Activator for AMP-activated Protein Kinase (AMPK) (Test Example 2)
Thus, phosphorylation treatment was carried out as pretreatment.
Human AMPK α2β2γ1 in an amount to give a conversion rate of approximately 10% by reaction for 2 hours, and CaMKK2 in an amount capable of sufficiently imparting activity to AMPK for one hour were mixed in a buffer solution consisting of a 50 mM HEPES-NaOH buffer solution (pH 7.0), 100 mM NaCl, 5 mM magnesium chloride, 0.1% bovine serum albumin, 0.2 mM sodium orthovanadate(V), 1 mM ethylene glycol-bis(2-aminoethyl ether)-N,N,N′,N′-tetraacetic acid (EGTA), 5 mM disodium β-glycerophosphate, 1 mM dithiothreitol and 0.2 mM ATP, and the obtained liquid was left to stand at 25° C. for 1 to 1.5 hours to sufficiently phosphorylate AMPK.
After that, to the enzyme liquid, which had been subjected to phosphorylation treatment, a compound dissolved in DMSO was added so as to have a 1% DMSO concentration. The obtained liquid was left to stand for 10 minutes.
To the liquid, a substrate solution consisting of a 50 mM HEPES-NaOH buffer solution (pH 7.0), 100 mM NaCl, 10 mM magnesium chloride, 0.1% bovine serum albumin, 0.2 mM sodium orthovanadate(V), 1 mM ethylene glycol-bis(2-aminoethyl ether)-N,N,N′,N′-tetraacetic acid (EGTA), 5 mM disodium β-glycerophosphate, 2 mM dithiothreitol, 0.4 mM ATP and 3 μM FL-Peptide 7 (manufactured by Caliper Life Sciences, Inc.) was added in equal amount (10 μl in total). The obtained liquid was allowed to react at 25° C. for 2 hours, and 10 μl of 20 mM EDTA was then added thereto to stop the reaction.
(§1) To detect phosphorylated fluorescent substrates, the reaction liquid was applied to a measuring device, LabChip EZ Reader II manufactured by Caliper Life Science, Inc., for detecting fluorescence by using differences in mobility due to differences in charge. The setting conditions for the device were pressure, −1.5 PSI; upstream voltage, −2250 V; downstream voltage, −400 V; post sample buffer sip time, 40 seconds; final delay, 120 seconds; and peak order, Product First.
(§2) A conversion rate was calculated from the peak heights of the resulting substrate and product. The conversion rate when not containing a compound was used as a control, and a concentration dependent curve was made by plotting the rate of increase in activity to the control at each concentration of a compound.

human AMPK α1β1γ1 enzyme = target: T2, human AMPK α1β1γ1 enzyme (Homo sapiens, UniProt Q13131+Q9Y478); test: Evaluation of AMPK activator, Test Example 1 (mobility-shift kinase assay, FL-Peptide 7); type: biochemical; settings: for EC150 (compound concentration showing 150% relative to the control (100%)): human AMPK α1β1γ1, 25° C., 2 hours, 0.2 mM ATP final; for Emax: human AMPK α1β1γ1, relative to control (100%), read-out: Emax (maximum rate of increase in activity within the measurement range)
T2 construct: purchased Carna Biosciences, Inc
T2 sequence (Q13131 10-559 limits assumed): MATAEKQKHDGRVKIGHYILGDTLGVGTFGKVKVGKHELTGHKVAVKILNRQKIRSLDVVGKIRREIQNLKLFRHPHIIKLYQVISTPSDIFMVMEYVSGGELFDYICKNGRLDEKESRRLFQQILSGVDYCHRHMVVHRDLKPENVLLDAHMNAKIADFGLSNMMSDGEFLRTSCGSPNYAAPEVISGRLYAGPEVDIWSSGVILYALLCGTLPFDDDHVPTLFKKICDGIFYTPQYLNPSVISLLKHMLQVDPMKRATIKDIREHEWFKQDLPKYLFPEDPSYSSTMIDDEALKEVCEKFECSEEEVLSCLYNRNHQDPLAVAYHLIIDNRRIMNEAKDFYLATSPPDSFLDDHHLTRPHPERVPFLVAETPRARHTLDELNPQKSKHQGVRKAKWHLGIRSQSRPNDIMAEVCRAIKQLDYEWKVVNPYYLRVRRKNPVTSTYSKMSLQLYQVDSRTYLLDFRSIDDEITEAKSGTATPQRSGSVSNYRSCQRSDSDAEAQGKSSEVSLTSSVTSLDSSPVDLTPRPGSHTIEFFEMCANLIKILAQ
T2 sequence (Q9Y478 whole entry): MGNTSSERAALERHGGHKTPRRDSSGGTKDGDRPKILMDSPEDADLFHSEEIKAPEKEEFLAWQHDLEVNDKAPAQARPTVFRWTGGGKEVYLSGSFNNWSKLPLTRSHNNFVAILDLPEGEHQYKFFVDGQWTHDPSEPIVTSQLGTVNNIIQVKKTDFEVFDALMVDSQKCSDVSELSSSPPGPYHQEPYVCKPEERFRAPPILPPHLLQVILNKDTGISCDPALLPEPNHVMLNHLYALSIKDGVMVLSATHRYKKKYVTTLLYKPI
T2 sequence (P54619 whole entry partner): as the sequence (P54619 whole entry partner) above
Procedure: The obtained liquid was left to stand for 10 minutes.
The obtained liquid was allowed to react at 25° C. for 2 hours, and 10 μl of 20 mM EDTA was then added thereto to stop the reaction.
as §1, §2

SMILES | EC150 (compound concentration showing 150% relative to the control (100%)) (Human AMPK α2β2γ1) [nM] | Emax (Human AMPK α2β2γ1) [%] | EC150 (compound concentration showing 150% relative to the control (100%)) (human AMPK α1β1γ1 enzyme) [nM] | Emax (human AMPK α1β1γ1 enzyme) [%]
CC(C)(C(=O)O)[C@]1(F)CC[C@@H](Oc2nc3nc(-c4ccc(N5CCOCC5)cc4)c(Cl)cc3[nH]2)CC1 [Compound I-3-99] | 15 | 261 | 3.7 | 310
NC(=O)c1ccc(-c2ccc(-c3nc4nc(O[C@H]5CC[C@H](C(=O)O)CC5)[nH]c4cc3Cl)cc2)cc1 [Compound I-3-120] | 7 | 262 | 28 | 216

From patent US10093670B2, “Azabenzimidazole derivative having AMPK-activating activity” (Shionogi & Co., Ltd., priority 2011, dated 2018)
